Assay results as given in ChEMBL document CHEMBL4340549, “Design, synthesis and biological evaluation of isochroman-4-one hybrids bearing piperazine moiety as antihypertensive agent candidates” (Bioorg Med Chem, 2019).

Legend:
[1] = test system: Rattus norvegicus; experiment: Antihypertensive activity in spontaneously hypertensive rat assessed as diastolic arterial pressure at 80 mg/kg, po measured after 6 hrs by tail-cuff method (reference value: 137.54 +/- 9.2 mmHg); type: functional
[2] = test system: Thoracic aorta; experiment: Vasodilatory activity in Sprague-Dawley rat thoracic aorta assessed as inhibition of noradrenaline-induced contractions at 10 uM relative to untreated control; type: functional
[3] = test system: Thoracic aorta; experiment: Vasodilatory activity in Sprague-Dawley rat thoracic aorta assessed as inhibition of noradrenaline-induced contractions at 100 uM relative to untreated control; type: functional
[4] = biological target: T1, Alpha-1D adrenergic receptor (Rattus norvegicus, UniProt P23944); experiment: Antagonist activity at alpha-1D adrenergic receptor in SPF rat vas thoracic aorta assessed as inhibition of noradrenaline-induced contractions; conditions: read-out: pA2 (converted)
T1 sequence (P23944 whole entry): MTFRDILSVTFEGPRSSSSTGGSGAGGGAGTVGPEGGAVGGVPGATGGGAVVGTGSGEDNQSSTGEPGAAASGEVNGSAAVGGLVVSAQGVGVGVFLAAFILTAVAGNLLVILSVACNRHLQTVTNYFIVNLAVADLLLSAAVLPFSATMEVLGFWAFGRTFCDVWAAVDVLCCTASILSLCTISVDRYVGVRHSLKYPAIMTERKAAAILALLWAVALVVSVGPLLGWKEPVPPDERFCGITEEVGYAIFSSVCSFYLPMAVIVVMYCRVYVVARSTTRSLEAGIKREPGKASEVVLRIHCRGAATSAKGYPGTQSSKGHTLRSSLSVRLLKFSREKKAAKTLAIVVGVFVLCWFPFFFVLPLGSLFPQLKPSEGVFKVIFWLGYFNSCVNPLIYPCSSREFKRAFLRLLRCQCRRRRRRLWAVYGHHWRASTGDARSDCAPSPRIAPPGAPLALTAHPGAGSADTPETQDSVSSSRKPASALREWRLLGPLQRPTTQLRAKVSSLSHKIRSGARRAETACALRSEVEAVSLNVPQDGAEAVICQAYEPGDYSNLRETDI

[5] = biological target: T2, Alpha-1A adrenergic receptor (Rattus norvegicus, UniProt P43140); experiment: Antagonist activity at alpha-1a adrenergic receptor in SPF rat prostatic vas deferens assessed as inhibition of noradrenaline-induced contractions; conditions: read-out: pA2 (converted)
T2 sequence (P43140 whole entry): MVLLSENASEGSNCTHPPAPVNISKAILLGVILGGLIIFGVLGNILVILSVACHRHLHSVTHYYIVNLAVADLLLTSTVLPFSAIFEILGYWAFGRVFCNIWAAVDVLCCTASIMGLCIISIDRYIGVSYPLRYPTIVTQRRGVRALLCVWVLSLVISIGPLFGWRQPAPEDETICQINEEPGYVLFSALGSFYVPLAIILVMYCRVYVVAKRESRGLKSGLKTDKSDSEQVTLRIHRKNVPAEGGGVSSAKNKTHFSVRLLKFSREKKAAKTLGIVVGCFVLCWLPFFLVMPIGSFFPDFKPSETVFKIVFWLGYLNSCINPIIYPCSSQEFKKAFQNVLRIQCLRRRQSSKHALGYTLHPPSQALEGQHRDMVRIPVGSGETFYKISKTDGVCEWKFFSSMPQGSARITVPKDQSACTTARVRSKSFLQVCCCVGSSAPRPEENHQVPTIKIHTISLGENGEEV

[6] = biological target: T3, Alpha-1B adrenergic receptor (Rattus norvegicus, UniProt P15823); experiment: Antagonist activity at alpha-1b adrenergic receptor in SPF rat spleen assessed as inhibition of noradrenaline-induced contractions; type: tissue-based; conditions: read-out: pA2 (converted)
T3 sequence (P15823 whole entry): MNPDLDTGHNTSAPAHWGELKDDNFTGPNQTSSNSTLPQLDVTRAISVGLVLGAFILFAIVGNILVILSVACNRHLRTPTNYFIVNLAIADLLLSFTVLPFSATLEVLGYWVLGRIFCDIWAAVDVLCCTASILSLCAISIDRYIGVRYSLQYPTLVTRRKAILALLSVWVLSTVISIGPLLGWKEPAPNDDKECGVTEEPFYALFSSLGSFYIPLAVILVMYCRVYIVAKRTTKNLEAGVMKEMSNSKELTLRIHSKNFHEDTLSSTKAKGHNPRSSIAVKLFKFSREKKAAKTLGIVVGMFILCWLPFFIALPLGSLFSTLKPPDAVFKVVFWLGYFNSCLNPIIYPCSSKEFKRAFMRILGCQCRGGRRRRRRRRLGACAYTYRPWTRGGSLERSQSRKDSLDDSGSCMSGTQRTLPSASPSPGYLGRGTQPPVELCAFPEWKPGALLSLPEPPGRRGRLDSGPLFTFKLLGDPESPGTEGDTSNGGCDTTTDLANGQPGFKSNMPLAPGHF

[7] = species: Rattus norvegicus; experiment: Ratio of pA2 for alpha-1b adrenergic receptor in SPF rat spleen to pA2 for alpha-1D adrenergic receptor in SPF rat vas thoracic aorta
[8] = test system: Rattus norvegicus; experiment: Antihypertensive activity in spontaneously hypertensive rat assessed as systolic arterial pressure at 80 mg/kg, po measured after 0 hrs by tail-cuff method (reference value: 186.10 +/- 4.55 mmHg); type: functional
[9] = test system: Rattus norvegicus; experiment: Antihypertensive activity in spontaneously hypertensive rat assessed as diastolic arterial pressure at 80 mg/kg, po measured after 0 hrs by tail-cuff method (reference value: 149.50 +/- 5.4 mmHg); type: functional
[10] = test system: Rattus norvegicus; experiment: Effect on heart rate in spontaneously hypertensive rat assessed as heart rate level at 80 mg/kg, po measured after 0 hrs by tail-cuff method (reference value: 413.17 +/- 10.5 bpm); type: ADME, organism-based; conditions: in vivo
[11] = test system: Rattus norvegicus; experiment: Effect on heart rate in spontaneously hypertensive rat assessed as heart rate level at 80 mg/kg, po measured after 1 hr by tail-cuff method (reference value: 415.25 +/- 14.7 bpm); type: ADME, organism-based; conditions: in vivo
[12] = test system: Rattus norvegicus; experiment: Antihypertensive activity in spontaneously hypertensive rat assessed as mean arterial pressure at 80 mg/kg, po measured after 2 hrs by tail-cuff method (reference value: 163 +/- 8.1 mmHg); type: functional
[13] = test system: Rattus norvegicus; experiment: Effect on heart rate in spontaneously hypertensive rat assessed as heart rate level at 80 mg/kg, po measured after 2 hrs by tail-cuff method (reference value: 413.2 +/- 15.2 bpm); type: ADME, organism-based; conditions: in vivo
[14] = test system: Rattus norvegicus; experiment: Antihypertensive activity in spontaneously hypertensive rat assessed as systolic arterial pressure at 80 mg/kg, po measured after 4 hrs by tail-cuff method (reference value: 178.66 +/- 17.18 mmHg); type: functional
[15] = test system: Rattus norvegicus; experiment: Effect on heart rate in spontaneously hypertensive rat assessed as heart rate level at 80 mg/kg, po measured after 4 hrs by tail-cuff method (reference value: 410.80 +/- 17.4 bpm); type: ADME, organism-based; conditions: in vivo
[16] = test system: Rattus norvegicus; experiment: Antihypertensive activity in spontaneously hypertensive rat assessed as systolic arterial pressure at 80 mg/kg, po measured after 8 hrs by tail-cuff method (reference value: 179.42 +/- 13.70 mmHg); type: functional
[17] = test system: Rattus norvegicus; experiment: Antihypertensive activity in spontaneously hypertensive rat assessed as diastolic arterial pressure at 80 mg/kg, po measured after 8 hrs by tail-cuff method (reference value: 140.61 +/- 10.3 mmHg); type: functional
[18] = test system: Rattus norvegicus; experiment: Antihypertensive activity in spontaneously hypertensive rat assessed as reduction in mean arterial pressure at 80 mg/kg, po measured after 4 hrs by tail-cuff method; type: functional; design: scale not given: the % may be the effect or the level left

Kb [4]: 189 to 195 nM | Kb [5]: 224 nM | Kb [6]: 35.5 nM | Ratio [7]: 5.6
Compound: COc1cc2c(cc1OCC(O)CN1CCN(C(=O)C3CCCO3)CC1)C(=O)C(C)OC2 (stereo not drawn)
Activity [1]: 132.51 mmHg | inhibition at 10 µM [2]: 41.6% | inhibition at 100 µM [3]: 64% | Activity [8]: 187.64 mmHg | Activity [9]: 156.23 mmHg | Activity [10]: 415.33 bpm | Activity [11]: 409.3 bpm | Activity [12]: 138.17 mmHg | Activity [13]: 408.14 bpm | Activity [14]: 140.29 mmHg | Activity [15]: 405.15 bpm | Activity [16]: 170.38 mmHg | Activity [17]: 141.89 mmHg | Activity [18]: 23.7%
